In patent publication US20250304549A1, “HYDROXYAMIDE DERIVATIVE AND USE THEREOF” (SICHUAN HUIYU PHARMACEUTICAL CO., LTD., priority 2022, published 2025):
Where a name gives a salt, the structure may show the parent alone.

Assays:
DU145 cells = experiment: In vitro cell inhibition assay - DU145 cell proliferation (CellTiter-Glo); assay type: cell-based; conditions: Homo sapiens, DU-145, Du145 prostate cancer cell proliferation
Method: 5. In Vitro Cell Inhibition Assay—DU145 Cell Proliferation
The inhibitory effect of the compounds on cell proliferation was assessed by detecting the number of viable cells using the CellTiter-Glo® reagent. DU145 cells in the logarithmic growth phase were collected and inoculated into transparent bottom 96-well plates at a density 1×10^3 cells per well with 100 μL medium, and incubated at 37° C., 5% CO2 overnight. The compounds were sequentially diluted in a 5-fold concentration gradient with DMSO to obtain 8 different concentrations. These were then diluted with RPMI-640 (containing 10% FBS) cell culture medium to obtain the compound working solution (2×), which was added to the cell supernatant at 100 μL per well. The incubation continued for 6 days at 37° C., 5% CO2. The plate was then removed and equilibrated at room temperature (25° C.) along with the CellTiter-Glo® mixing reagent for 10-30 minutes. After centrifugation, 120 μL of the culture medium was carefully aspirated from each well, and 60 μL of CellTiter-Glo® reagent was added. The cells were thoroughly mixed with the CellTiter-Glo® mixing reagent using a microplate shaker for 2 min. and then incubated at room temperature for 10 min. The 96-well plate was subsequently placed on a multifunctional microplate reader to record the Luminescence values (RLU).
(§1) The inhibition rate was calculated using the following formula: […]
(§2) Note: ‘Negative’ refers to the group without inhibitors; ‘Blank’ refers to the group without cells.
(§3) The IC50 value was determined by fitting the inhibition rate by GraphPad Prism software.

NCI-H69 cells = experiment: In vitro cell inhibition assay - NCI-H69 cell proliferation (CellTiter-Glo); assay type: cell-based; conditions: Homo sapiens, NCI-H69, H69 small cell lung cancer cell proliferation
Outline: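 Cells seeded at 1×10^3 per well and incubated overnight at 37° C., 5% CO2, then treated with 8-point 5-fold compound dilutions in RPMI-640 with 20% FBS for 7 days. Viable cells measured by CellTiter-Glo luminescence; IC50 fitted from inhibition relative to no-inhibitor and no-cell controls.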

NCI-H1417 cells = experiment: In vitro cell inhibition assay - H1417 cell proliferation (CellTiter-Glo); assay type: cell-based; conditions: Homo sapiens, NCI-H1417, H1417 small cell lung cancer cell proliferation
Outline: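 Cells exposed to 8 compound concentrations (5-fold dilutions) in BEGM with 10% FBS for 7 days at 37° C., 5% CO2. Viable cells measured by CellTiter-Glo luminescence; inhibition versus no-inhibitor and no-cell controls, IC50 fitted.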

HDAC8 = HDAC8 (Homo sapiens (Human), UniProt Q9BY41); experiment: In vitro enzyme inhibition assay - HDAC (HDAC-Glo I/II), HDAC8; assay type: biochemical; conditions: read-out: HDAC IC50 (nM) HDAC 8
HDAC8, sequence (Q9BY41 whole entry): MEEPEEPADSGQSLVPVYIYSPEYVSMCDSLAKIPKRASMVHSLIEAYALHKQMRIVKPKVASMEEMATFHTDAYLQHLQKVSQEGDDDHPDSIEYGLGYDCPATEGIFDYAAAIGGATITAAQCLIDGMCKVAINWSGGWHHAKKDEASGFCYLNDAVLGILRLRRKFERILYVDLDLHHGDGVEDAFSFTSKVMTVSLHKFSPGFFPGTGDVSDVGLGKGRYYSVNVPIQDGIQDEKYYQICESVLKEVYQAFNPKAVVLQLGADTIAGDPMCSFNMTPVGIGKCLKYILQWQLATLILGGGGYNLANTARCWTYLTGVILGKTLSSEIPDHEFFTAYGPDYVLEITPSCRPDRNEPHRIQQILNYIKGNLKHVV
Outline: (§4)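 Eight compound concentrations (5-fold gradient; 1 mM DMSO stock) were assayed by HDAC-Glo I/II luminescence. IC50 was obtained by four-parameter fitting.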

NCI-H526 cells = experiment: In vitro cell inhibition assay - NCI-H526 cell proliferation (CellTiter-Glo); assay type: cell-based; conditions: Homo sapiens, NCI-H526, 120 h, H526 small cell lung cancer cell proliferation, 5 days
Method: 6. In Vitro Cell Inhibition Assay—NCI-H526 Cell Proliferation
The inhibitory effect of the compounds on cell proliferation was assessed by detecting the number of viable cells using CellTiter-Glo® reagent. NCI-H526 cells in the logarithmic growth phase were collected and inoculated into transparent bottom 96-well plates at a density 1×10^3 cells per well with 100 μL of medium, and incubated at 37° C., 5% CO2 overnight. The compounds were sequentially diluted in a 5-fold concentration gradient with DMSO to obtain 8 different concentrations. These were then diluted with RPMI-640 (containing 10% FBS) cell culture medium to obtain the compound working solution (2×), which was added to the cell supernatant at 100 μL per well. The incubation continued for 5 days at 37° C., 5% CO2. The plate was then removed and equilibrated at room temperature (25° C.) along with the CellTiter-Glo® mixing reagent for 10-30 minutes; 80 μL of the culture medium was carefully aspirated from each well, and 80 μL of CellTiter-Glo® reagent was added. The cells were thoroughly mixed with the CellTiter-Glo® mixing reagent using a microplate shaker for 2 min. and then incubated at room temperature for 10 min. The 96-well plate was subsequently placed on a multifunctional microplate reader to record the Luminescence values (RLU).
as §1, §2, §3

pan-HDAC = experiment: In vitro enzyme inhibition assay - HDAC (HDAC-Glo I/II), pan-HDAC; assay type: biochemical
Outline: as §4

LSD1 = LSD1 (Homo sapiens (Human), UniProt O60341); experiment: In vitro enzyme inhibition assay - LSD1 (HTRF); assay type: biochemical

| SMILES | IC50 (DU145 cells) [nM] | IC50 (NCI-H69 cells) [nM] | IC50 (NCI-H1417 cells) [nM] | IC50 (HDAC8) [nM] | IC50 (NCI-H526 cells) [nM] | IC50 (pan-HDAC) [nM] | IC50 (LSD1) [nM] |
| --- | --- | --- | --- | --- | --- | --- | --- |
| COc1cc(-c2cnc(N3CCC(NCCCc4ccc(C(=O)NO)cc4)CC3)c(C#N)c2-c2ccc(C#N)c(F)c2)ccc1O [Example 93, 4-(3-(3-Cyano-4-(4-cyano-3-fluorophenyl)-5-(4-hydroxy-3-methoxyphenyl)pyridin-2-yl)piperidin-4-yl)amino)propyl)-N-hydroxybenzamide formate] | 2840 | 1280 | 343 |  |  |  |  |
| COc1cc(-c2cnc(N3CCC(NCc4ccc(/C=C/C(=O)NO)cc4)CC3)c(F)c2-c2ccc(C#N)c(F)c2)ccc1O [Example 77, (E)-3-(4-(((1-(4-(4-Cyano-3-fluorophenyl)-3-fluoro-5-(4-hydroxy-3-methoxyphenyl)pyridin-2-yl)piperidin-4-yl)amino)methyl)phenyl)-N-hydroxyacrylamide formate] | 320 | 121 | 661 |  |  |  |  |
| COc1ccc(-c2cnc(N3CCC(Nc4ccc(/C=C/C(=O)NO)cc4)CC3)c(C#N)c2-c2ccc(C#N)c(F)c2)cc1O [Example 82, (E)-3-(4-((1-(3-Cyano-4-(4-cyano-3-fluorophenyl)-5-(3-hydroxy-4-methoxyphenyl)pyridin-2-yl)piperidin-4-yl)amino)phenyl)-N-hydroxyacrylamide formate] | 352 | 268 | 11.5 |  |  |  |  |
| COc1ccc(-c2cnc(N3CCC(NCc4ccc(/C=C/C(=O)NO)cc4F)CC3)c(C#N)c2-c2ccc(C#N)c(F)c2)cc1O [Example 154, (E)-3-(4-(((1-(3-Cyano-4-(4-cyano-3-fluorophenyl)-5-(3-hydroxy-4-methoxyphenyl)pyridin-2-yl)piperidin-4-yl)amino)methyl)-3-fluorophenyl)-N-hydroxyacrylamide hydrochloride] |  | 16.5 | 1.41 | 309 | 21.7 | 4.3 | 0.44 |
| CC(C)(O)Cn1nnc2cc(-c3cnc(N4CCC(NCc5ccc(/C=C/C(=O)NO)cc5)CC4)c(C#N)c3-c3ccc(C#N)c(F)c3)ccc21 [Example 197, (E)-3-(4-(((1-(3-Cyano-4-(4-cyano-3-fluorophenyl)-5-(1-(2-hydroxy-2-methylpropyl)-1H-benzo[d][1,2,3]triazol-5-yl)pyridin-2-yl)piperidin-4-yl)amino)methyl)phenyl)-N-hydroxyacrylamide formate] |  | 71.8 | 3.59 | 30.1 | 193 | 7.48 | 0.49 |
| COc1ccc(-c2cnc(N3CCC(NCc4ccc(/C=C/C(=O)NO)cc4Cl)CC3)c(C#N)c2-c2ccc(C#N)c(F)c2)cc1O [Example 156, (E)-3-(3-Chloro-4-((1-(3-cyano-4-(4-cyano-3-fluorophenyl)-5-(3-hydroxy-4-methoxyphenyl)pyridin-2-yl)piperidin-4-yl)amino)methyl) phenyl)-N-hydroxyacrylamide formate] |  | 58.1 | 6.64 | 731 | 80.4 | 8.88 | 2.53 |
| Cn1cc2cc(-c3c(OCCCCCCC(=O)NO)cc(N4CCC(N)CC4)nc3-c3ccc(C#N)c(F)c3)ccc2n1 [Example 14, 7-((6-(4-Aminopiperidin-1-yl)-2-(4-cyano-3-fluorophenyl)-3-(2-methyl-2H-indazol-5-yl)pyridin-4-yl)oxy)-N-hydroxyheptanamide formate] | 3210 | 2520 | > 1000 |  |  |  |  |
| COc1ccc(-c2cnc(N3CCC(NCc4ccc(/C(C)=C/C(=O)NO)cc4)CC3)c(C#N)c2-c2ccc(C#N)c(F)c2)cc1O [Example 170, (E)-3-(4-(((1-(3-Cyano-4-(4-cyano-3-fluorophenyl)-5-(3-hydroxy-4-methoxyphenyl)pyridin-2-yl)piperidin-4-yl)amino)methyl)phenyl)-N-hydroxybut-2-enamide formate] |  | 27.6 | 1.28 | 62.7 | 27.5 | 2 | 0.43 |
| COc1ccc(-c2cnc(N3CCC(NCc4ccc(/C=C(\F)C(=O)NO)cc4)CC3)c(C#N)c2-c2ccc(C#N)c(F)c2)cc1O [Example 171, (Z)-3-(4-(((1-(3-Cyano-4-(4-cyano-3-fluorophenyl)-5-(3-hydroxy-4-methoxyphenyl)pyridin-2-yl)piperidin-4-yl)amino)methyl)phenyl)-2-fluoro-N-hydroxyacrylamide formate] |  | 14.5 | 0.54 | 53.1 | 12.3 | 1.68 | 0.55 |
| COc1ccc(-c2cnc(N3CCC(NCc4ccc(/C=C/C(=O)NO)c(C#N)c4)CC3)c(C#N)c2-c2ccc(C#N)c(F)c2)cc1O [Example 162, (E)-3-(2-Cyano-4-((1-(3-cyano-4-(4-cyano-3-fluorophenyl)-5-(3-hydroxy-4-methoxyphenyl)pyridin-2-yl)piperidin-4-yl)amino)methyl) phenyl)-N-hydroxyacrylamide formate] |  | 21.7 | 2.98 | 209 | 18.5 | 3.34 | 0.4 |
| COc1ccc(-c2cnc(N3CCC(NCc4ccc(/C=C/C(=O)NO)c(F)c4)CC3)c(C#N)c2-c2ccc(C#N)nc2)cc1O [Example 258, (E)-3-(4-(((1-(3′,6-Dicyano-5′-(3-hydroxy-4-methoxyphenyl)-[3,4′-bipyridin]-2′-yl)piperidin-4-yl)amino)methyl)-2-fluorophenyl)-N-hydroxyacrylamide formate] |  | 1.81 | 1.05 |  | 2.09 | 0.3 | 1.41 |
| N#Cc1ccc(-c2c(-c3ccc(Cl)c(O)c3)cnc(N3CCC(NCc4cnc(/C=C/C(=O)NO)nc4)CC3)c2C#N)cc1F [Example 159, (E)-3-(5-(((1-(5-(4-Chloro-3-hydroxyphenyl)-3-cyano-4-(4-cyano-3-fluorophenyl)pyridin-2-yl)piperidin-4-yl)amino)methyl)pyrimidin-2-yl)-N-hydroxyacrylamide hydrochloride] |  | 17.9 | 3.5 | 83.5 | 16.1 | 2.71 | 1.82 |
| COc1cc(-c2cnc(N3CCC(NCC4CCN(c5ccc(C(=O)NO)cc5)CC4)CC3)c(C#N)c2-c2ccc(C#N)c(F)c2)ccc1O [Example 91, 4-(4-(1-(3-Cyano-4-(4-cyano-3-fluorophenyl)-5-(4-hydroxy-3-methoxyphenyl)pyridin-2-yl)piperidin-4-yl)amino)methyl) piperidin-1-yl)-N-hydroxybenzamide formate] | 2630 | 906 | 623 |  |  |  |  |
| COc1ccc(-c2c(C#N)cc(N3CCC(NCc4ccc(/C=C/C(=O)NO)cc4)CC3)nc2-c2ccc(C#N)c(F)c2)cc1O [Example 176, (E)-3-(4-(((1-(4-cyano-6-(4-cyano-3-fluorophenyl)-5-(3-hydroxy-4-methoxyphenyl)pyridin-2-yl)piperidin-4-yl)amino)methyl)phenyl)-N-hydroxyacrylamide formate] |  | 245 | 1.88 | 508 | 497 | 38.2 | 0.69 |
